Ki data for 2 molecules are collected here from article PMC7360862, “Sub-Acute Treatment of Curcumin Derivative J147 Ameliorates Depression-Like Behavior Through 5-HT1A-Mediated cAMP Signaling” (Frontiers in Neuroscience, 2020).

Assay [1] has as its target T1, 5-HT1B receptor (Mus musculus, UniProt P28334).
T1 construct: gene Htr1b; native receptor in mouse frontal cortex membranes
The assay can be described thus: competitive radioligand binding, mouse frontal cortex membranes, reference antagonist measured in the same laboratory.

For assay [2], the target named is T1, 5-HT1B receptor. The assay can be described thus: competitive radioligand binding, mouse frontal cortex membranes.
Another assay addresses T2, 5-HT1A receptor (Mus musculus, UniProt Q64264).
T2 construct: gene Htr1a; native receptor in mouse frontal cortex membranes
T2 sequence (Q64264 1-421): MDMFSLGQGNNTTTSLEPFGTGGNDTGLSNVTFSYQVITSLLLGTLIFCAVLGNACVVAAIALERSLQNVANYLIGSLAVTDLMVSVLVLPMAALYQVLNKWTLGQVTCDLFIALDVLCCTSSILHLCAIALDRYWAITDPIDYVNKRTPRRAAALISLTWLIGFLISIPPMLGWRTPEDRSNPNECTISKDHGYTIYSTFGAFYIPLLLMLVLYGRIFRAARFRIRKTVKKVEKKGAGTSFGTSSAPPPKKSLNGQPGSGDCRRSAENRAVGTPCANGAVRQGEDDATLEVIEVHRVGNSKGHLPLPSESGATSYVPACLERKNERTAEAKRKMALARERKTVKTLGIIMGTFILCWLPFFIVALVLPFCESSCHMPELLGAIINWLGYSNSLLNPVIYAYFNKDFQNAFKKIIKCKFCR
The experiment in a line: competitive radioligand binding ([3H]-8-OH-DPAT displacement), mouse frontal cortex membranes.

T1 sequence (P28334 whole entry): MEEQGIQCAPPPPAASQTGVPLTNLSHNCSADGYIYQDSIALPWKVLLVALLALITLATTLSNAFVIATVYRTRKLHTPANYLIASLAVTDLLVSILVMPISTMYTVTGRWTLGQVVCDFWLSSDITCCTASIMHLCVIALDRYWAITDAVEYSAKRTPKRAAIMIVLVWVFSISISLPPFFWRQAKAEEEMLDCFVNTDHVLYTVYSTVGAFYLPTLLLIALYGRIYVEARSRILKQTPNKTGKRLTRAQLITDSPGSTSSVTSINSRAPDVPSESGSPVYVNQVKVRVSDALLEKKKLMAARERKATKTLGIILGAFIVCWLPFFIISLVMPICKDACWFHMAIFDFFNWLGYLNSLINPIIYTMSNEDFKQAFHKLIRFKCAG

As to `COc1ccc(NC(=O)c2ccc(-c3ccc(-c4noc(C)n4)cc3C)cc2)cc1N1CCN(C)CC1` [GR-127935], the Ki at 5-HT1B receptor [1] is 1.29 nM.

As for `COc1cccc(/C=N/N(C(=O)C(F)(F)F)c2ccc(C)cc2C)c1` [J147], the Ki turned out to be 612 nM at 5-HT1B receptor [2] and 0.42 nM at 5-HT1A receptor.
